Values after ≈ are worked out from the molar mass of the structure shown.
What was measured:
Assay type in all cases: functional
Klebsiella pneumoniae = test: Antibacterial activity against Klebsiella pneumoniae assessed as inhibition of bacterial growth
Enterococcus faecalis = test: Antibacterial activity against Enterococcus faecalis assessed as inhibition of bacterial growth
Staphylococcus aureus [1] = test: Antibacterial activity against methicillin resistant Staphylococcus aureus N315 assessed as inhibition of bacterial growth
Acinetobacter baumannii = test: Antibacterial activity against Acinetobacter baumannii assessed as inhibition of bacterial growth
Staphylococcus aureus [2] = test: Antibacterial activity against Staphylococcus aureus ATCC 29213 assessed as inhibition of bacterial growth
Staphylococcus aureus [3] = test: Antibacterial activity against Staphylococcus aureus ATCC 25923 assessed as inhibition of bacterial growth
Escherichia coli [4] = test: Antibacterial activity against Escherichia coli assessed as inhibition of bacterial growth
Pseudomonas aeruginosa [5] = test: Antibacterial activity against Pseudomonas aeruginosa assessed as inhibition of bacterial growth
Staphylococcus aureus [6] = test: Antibacterial activity against Staphylococcus aureus assessed as inhibition of bacterial growth
Pseudomonas aeruginosa [7] = test: Antibacterial activity against Pseudomonas aeruginosa ATCC 27853 assessed as inhibition of bacterial growth
Escherichia coli [8] = test: Antibacterial activity against Escherichia coli ATCC 25922 assessed as inhibition of bacterial growth

SMILES: Cc1cc(=O)oc2cc(/N=C3/S/C(=C\c4ccco4)C(=O)N3CCO)ccc12
- MIC (Klebsiella pneumoniae): 128 µg/mL (≈ 323 µM)
- MIC (Enterococcus faecalis): 16 µg/mL (≈ 40.4 µM)
- MIC (Staphylococcus aureus [1]): 8 µg/mL (≈ 20.2 µM)
- MIC (Acinetobacter baumannii): 1 µg/mL (≈ 2.52 µM)
- MIC (Staphylococcus aureus [2]): 32 µg/mL (≈ 80.7 µM)
- MIC (Staphylococcus aureus [3]): 256 µg/mL (≈ 646 µM)
- MIC (Escherichia coli [4]): 128 µg/mL (≈ 323 µM)
- MIC (Pseudomonas aeruginosa [5]): 64 µg/mL (≈ 161 µM)
- MIC (Staphylococcus aureus [6]): 128 µg/mL (≈ 323 µM)
- MIC (Pseudomonas aeruginosa [7]): 32 µg/mL (≈ 80.7 µM)
- MIC (Escherichia coli [8]): 4 µg/mL (≈ 10.1 µM)

SMILES: Cc1ccc(/C=C2\S/C(=N/c3ccc4c(C)cc(=O)oc4c3)N(CCO)C2=O)c(C)c1
- MIC (Klebsiella pneumoniae): 128 µg/mL (≈ 295 µM)
- MIC (Enterococcus faecalis): 128 µg/mL (≈ 295 µM)
- MIC (Staphylococcus aureus [1]): 128 µg/mL (≈ 295 µM)
- MIC (Acinetobacter baumannii): 1 µg/mL (≈ 2.3 µM)
- MIC (Staphylococcus aureus [2]): 64 µg/mL (≈ 147 µM)
- MIC (Staphylococcus aureus [3]): 64 µg/mL (≈ 147 µM)
- MIC (Escherichia coli [4]): 64 µg/mL (≈ 147 µM)
- MIC (Pseudomonas aeruginosa [5]): 16 µg/mL (≈ 36.8 µM)
- MIC (Staphylococcus aureus [6]): 64 µg/mL (≈ 147 µM)
- MIC (Pseudomonas aeruginosa [7]): 256 µg/mL (≈ 589 µM)
- MIC (Escherichia coli [8]): 128 µg/mL (≈ 295 µM)

SMILES: Cc1cc(=O)oc2cc(/N=C3/S/C(=C\c4ccc(Cl)cc4)C(=O)N3CCO)ccc12
- MIC (Klebsiella pneumoniae): 128 µg/mL (≈ 290 µM)
- MIC (Enterococcus faecalis): 128 µg/mL (≈ 290 µM)
- MIC (Staphylococcus aureus [1]): 16 µg/mL (≈ 36.3 µM)
- MIC (Acinetobacter baumannii): 32 µg/mL (≈ 72.6 µM)
- MIC (Staphylococcus aureus [2]): 4 µg/mL (≈ 9.07 µM)
- MIC (Staphylococcus aureus [3]): 8 µg/mL (≈ 18.1 µM)
- MIC (Escherichia coli [4]): 64 µg/mL (≈ 145 µM)
- MIC (Pseudomonas aeruginosa [5]): 2 µg/mL (≈ 4.54 µM)
- MIC (Staphylococcus aureus [6]): 128 µg/mL (≈ 290 µM)
- MIC (Pseudomonas aeruginosa [7]): 8 µg/mL (≈ 18.1 µM)
- MIC (Escherichia coli [8]): 2 µg/mL (≈ 4.54 µM)

SMILES: Cc1cc(=O)oc2cc(/N=C3/S/C(=C\c4ccccc4)C(=O)N3CCO)ccc12
- MIC (Klebsiella pneumoniae): 256 µg/mL (≈ 630 µM)
- MIC (Enterococcus faecalis): 128 µg/mL (≈ 315 µM)
- MIC (Staphylococcus aureus [1]): 64 µg/mL (≈ 157 µM)
- MIC (Acinetobacter baumannii): 1 µg/mL (≈ 2.46 µM)
- MIC (Staphylococcus aureus [2]): 128 µg/mL (≈ 315 µM)
- MIC (Staphylococcus aureus [3]): 128 µg/mL (≈ 315 µM)
- MIC (Escherichia coli [4]): 256 µg/mL (≈ 630 µM)
- MIC (Pseudomonas aeruginosa [5]): 64 µg/mL (≈ 157 µM)
- MIC (Staphylococcus aureus [6]): 64 µg/mL (≈ 157 µM)
- MIC (Pseudomonas aeruginosa [7]): 64 µg/mL (≈ 157 µM)
- MIC (Escherichia coli [8]): 256 µg/mL (≈ 630 µM)

SMILES: Cc1cc(=O)oc2cc(/N=C3/S/C(=C\c4nccs4)C(=O)N3CCO)ccc12
- MIC (Klebsiella pneumoniae): 2 µg/mL (≈ 4.84 µM)
- MIC (Enterococcus faecalis): 4 µg/mL (≈ 9.67 µM)
- MIC (Staphylococcus aureus [1]): 64 µg/mL (≈ 155 µM)
- MIC (Acinetobacter baumannii): 1 µg/mL (≈ 2.42 µM)
- MIC (Staphylococcus aureus [2]): 64 µg/mL (≈ 155 µM)
- MIC (Staphylococcus aureus [3]): 1 µg/mL (≈ 2.42 µM)
- MIC (Escherichia coli [4]): 128 µg/mL (≈ 310 µM)
- MIC (Pseudomonas aeruginosa [5]): 128 µg/mL (≈ 310 µM)
- MIC (Staphylococcus aureus [6]): 16 µg/mL (≈ 38.7 µM)
- MIC (Pseudomonas aeruginosa [7]): 128 µg/mL (≈ 310 µM)
- MIC (Escherichia coli [8]): 256 µg/mL (≈ 619 µM)

SMILES: Cc1cc(=O)oc2cc(/N=C3/S/C(=C\c4cccs4)C(=O)N3CCO)ccc12
- MIC (Klebsiella pneumoniae): 64 µg/mL (≈ 155 µM)
- MIC (Enterococcus faecalis): 4 µg/mL (≈ 9.7 µM)
- MIC (Staphylococcus aureus [1]): 128 µg/mL (≈ 310 µM)
- MIC (Acinetobacter baumannii): 1 µg/mL (≈ 2.42 µM)
- MIC (Staphylococcus aureus [2]): 1 µg/mL (≈ 2.42 µM)
- MIC (Staphylococcus aureus [3]): 32 µg/mL (≈ 77.6 µM)
- MIC (Escherichia coli [4]): 32 µg/mL (≈ 77.6 µM)
- MIC (Pseudomonas aeruginosa [5]): 16 µg/mL (≈ 38.8 µM)
- MIC (Staphylococcus aureus [6]): 4 µg/mL (≈ 9.7 µM)
- MIC (Pseudomonas aeruginosa [7]): 1 µg/mL (≈ 2.42 µM)
- MIC (Escherichia coli [8]): 32 µg/mL (≈ 77.6 µM)

SMILES: Cc1cc(=O)oc2cc(/N=C3/S/C(=C\c4csc5ccccc45)C(=O)N3CCO)ccc12
- MIC (Klebsiella pneumoniae): 32 µg/mL (≈ 69.2 µM)
- MIC (Enterococcus faecalis): 64 µg/mL (≈ 138 µM)
- MIC (Staphylococcus aureus [1]): 128 µg/mL (≈ 277 µM)
- MIC (Acinetobacter baumannii): 8 µg/mL (≈ 17.3 µM)
- MIC (Staphylococcus aureus [2]): 128 µg/mL (≈ 277 µM)
- MIC (Staphylococcus aureus [3]): 256 µg/mL (≈ 553 µM)
- MIC (Escherichia coli [4]): 128 µg/mL (≈ 277 µM)
- MIC (Pseudomonas aeruginosa [5]): 128 µg/mL (≈ 277 µM)
- MIC (Staphylococcus aureus [6]): 128 µg/mL (≈ 277 µM)
- MIC (Pseudomonas aeruginosa [7]): 64 µg/mL (≈ 138 µM)
- MIC (Escherichia coli [8]): 64 µg/mL (≈ 138 µM)

SMILES: CCn1cc(C(=O)O)c(=O)c2cc(F)c(N3CCNCC3)cc21 [NORFLOXACIN]
- MIC (Klebsiella pneumoniae): 4 µg/mL (≈ 12.5 µM)
- MIC (Enterococcus faecalis): 4 µg/mL (≈ 12.5 µM)
- MIC (Staphylococcus aureus [1]): 4 µg/mL (≈ 12.5 µM)
- MIC (Acinetobacter baumannii): 4 µg/mL (≈ 12.5 µM)
- MIC (Staphylococcus aureus [2]): 2 µg/mL (≈ 6.26 µM)
- MIC (Staphylococcus aureus [3]): 4 µg/mL (≈ 12.5 µM)
- MIC (Escherichia coli [4]): 2 µg/mL (≈ 6.26 µM)
- MIC (Pseudomonas aeruginosa [5]): 1 µg/mL (≈ 3.13 µM)
- MIC (Staphylococcus aureus [6]): 2 µg/mL (≈ 6.26 µM)
- MIC (Pseudomonas aeruginosa [7]): 4 µg/mL (≈ 12.5 µM)
- MIC (Escherichia coli [8]): 4 µg/mL (≈ 12.5 µM)

SMILES: Cc1cc(=O)oc2cc(/N=C3/S/C(=C\c4ccc(C#N)cc4)C(=O)N3CCO)ccc12
- MIC (Klebsiella pneumoniae): 128 µg/mL (≈ 297 µM)
- MIC (Enterococcus faecalis): 4 µg/mL (≈ 9.27 µM)
- MIC (Staphylococcus aureus [1]): 2 µg/mL (≈ 4.64 µM)
- MIC (Acinetobacter baumannii): 0.5 µg/mL (≈ 1.16 µM)
- MIC (Staphylococcus aureus [2]): 128 µg/mL (≈ 297 µM)
- MIC (Staphylococcus aureus [3]): 8 µg/mL (≈ 18.5 µM)
- MIC (Escherichia coli [4]): 256 µg/mL (≈ 593 µM)
- MIC (Pseudomonas aeruginosa [5]): 128 µg/mL (≈ 297 µM)
- MIC (Staphylococcus aureus [6]): 1 µg/mL (≈ 2.32 µM)
- MIC (Pseudomonas aeruginosa [7]): 256 µg/mL (≈ 593 µM)
- MIC (Escherichia coli [8]): 256 µg/mL (≈ 593 µM)

SMILES: Cc1cc(=O)oc2cc(/N=C3/SCC(=O)N3CCO)ccc12
- MIC (Klebsiella pneumoniae): 128 µg/mL (≈ 402 µM)
- MIC (Enterococcus faecalis): 128 µg/mL (≈ 402 µM)
- MIC (Staphylococcus aureus [1]): 128 µg/mL (≈ 402 µM)
- MIC (Acinetobacter baumannii): 0.5 µg/mL (≈ 1.57 µM)
- MIC (Staphylococcus aureus [2]): 64 µg/mL (≈ 201 µM)
- MIC (Staphylococcus aureus [3]): 16 µg/mL (≈ 50.3 µM)
- MIC (Escherichia coli [4]): 2 µg/mL (≈ 6.28 µM)
- MIC (Pseudomonas aeruginosa [5]): 128 µg/mL (≈ 402 µM)
- MIC (Staphylococcus aureus [6]): 128 µg/mL (≈ 402 µM)
- MIC (Pseudomonas aeruginosa [7]): 32 µg/mL (≈ 101 µM)
- MIC (Escherichia coli [8]): 64 µg/mL (≈ 201 µM)

SMILES: COc1ccc(/C=C2\S/C(=N/c3ccc4c(C)cc(=O)oc4c3)N(CCO)C2=O)cc1
- MIC (Klebsiella pneumoniae): 128 µg/mL (≈ 293 µM)
- MIC (Enterococcus faecalis): 8 µg/mL (≈ 18.3 µM)
- MIC (Staphylococcus aureus [1]): 4 µg/mL (≈ 9.16 µM)
- MIC (Acinetobacter baumannii): 8 µg/mL (≈ 18.3 µM)
- MIC (Staphylococcus aureus [2]): 0.5 µg/mL (≈ 1.15 µM)
- MIC (Staphylococcus aureus [3]): 32 µg/mL (≈ 73.3 µM)
- MIC (Escherichia coli [4]): 32 µg/mL (≈ 73.3 µM)
- MIC (Pseudomonas aeruginosa [5]): 64 µg/mL (≈ 147 µM)
- MIC (Staphylococcus aureus [6]): 32 µg/mL (≈ 73.3 µM)
- MIC (Pseudomonas aeruginosa [7]): 128 µg/mL (≈ 293 µM)
- MIC (Escherichia coli [8]): 128 µg/mL (≈ 293 µM)

SMILES: Cc1cc(=O)oc2cc(/N=C3/S/C(=C\c4c[nH]c5cc(Cl)ccc45)C(=O)N3CCO)ccc12
- MIC (Klebsiella pneumoniae): 8 µg/mL (≈ 16.7 µM)
- MIC (Enterococcus faecalis): 4 µg/mL (≈ 8.33 µM)
- MIC (Staphylococcus aureus [1]): 8 µg/mL (≈ 16.7 µM)
- MIC (Acinetobacter baumannii): 4 µg/mL (≈ 8.33 µM)
- MIC (Staphylococcus aureus [2]): 64 µg/mL (≈ 133 µM)
- MIC (Staphylococcus aureus [3]): 8 µg/mL (≈ 16.7 µM)
- MIC (Escherichia coli [4]): 8 µg/mL (≈ 16.7 µM)
- MIC (Pseudomonas aeruginosa [5]): 128 µg/mL (≈ 267 µM)
- MIC (Staphylococcus aureus [6]): 16 µg/mL (≈ 33.3 µM)
- MIC (Pseudomonas aeruginosa [7]): 64 µg/mL (≈ 133 µM)
- MIC (Escherichia coli [8]): 16 µg/mL (≈ 33.3 µM)

SMILES: Cc1cc(=O)oc2cc(/N=C3/S/C(=C\c4ccc(O)c(Cl)c4)C(=O)N3CCO)ccc12
- MIC (Klebsiella pneumoniae): 32 µg/mL (≈ 70 µM)
- MIC (Enterococcus faecalis): 8 µg/mL (≈ 17.5 µM)
- MIC (Staphylococcus aureus [1]): 64 µg/mL (≈ 140 µM)
- MIC (Acinetobacter baumannii): 16 µg/mL (≈ 35 µM)
- MIC (Staphylococcus aureus [2]): 256 µg/mL (≈ 560 µM)
- MIC (Staphylococcus aureus [3]): 128 µg/mL (≈ 280 µM)
- MIC (Escherichia coli [4]): 16 µg/mL (≈ 35 µM)
- MIC (Pseudomonas aeruginosa [5]): 32 µg/mL (≈ 70 µM)
- MIC (Staphylococcus aureus [6]): 32 µg/mL (≈ 70 µM)
- MIC (Pseudomonas aeruginosa [7]): 4 µg/mL (≈ 8.75 µM)
- MIC (Escherichia coli [8]): 32 µg/mL (≈ 70 µM)
